Test results as given in PMC11233548 (Communications Biology, 2024).
Entries after “also recorded” stand apart in the source; their conditions may differ. Like-named read-outs stand apart in the source and are kept apart here. Starred links: 1 amine or outer side, 2 acyl side, 3 side chain; linkers in the order of their positions; H or OH if unused. Primed or numbered codes have the meaning given here. No end group written: not given here. *: point of attachment. PEG5′ = linker from Fmoc-PEG5-OH (18-amino-4,7,10,13-tetraoxaoctadecanoic acid), O=C(CCOCCOCCOCCOCCCCCN[*:1])[*:2]; fluorescein = fluorescein label on the N-terminal amino group, attached via an aminohexanoic acid linker; FITC = O=C1OC2(c3ccc(O)cc3Oc3cc(O)ccc32)c2ccc(NC(=S)*)cc21; Biotin = O=C1N[C@H]2[C@H](CS[C@H]2CCCCC(=O)*)N1; Ahx = NCCCCCC(=O)O

Key:
[1] = test system: Gal1/C-RBD; assay: FLIM-FRET Gal1/C-RBD interaction in HEK cells; assay type: cell-based, rat Gal1; C-RBD of human C-Raf; HEK cells; conditions: mGFP-Gal1 / mRFP-C-RBD 1:3, expression (24 h) of plasmid or compound, n = 3
[2] = test system: HEK cells (pERK, pAkt); assay type: cell-based, human; conditions: 2 h, EGF 200 ng/mL 10 min; n = 3–8
[3] = test system: H-RasG12V nanoclustering; assay: H-RasG12V nanoclustering-BRET in HEK cells; assay type: cell-based, human; conditions: n = 3
[4] = biological target: Gal1; conditions: residues 22–45 of L5UR, opposite side of the carbohydrate binding site of Gal1; ref 38 (Elantak et al.); cited from earlier work
Excerpt: (Supplementary Fig. 2a). […] We hypothesized that the 52-mer L5UR peptide, which was derived from a Gal1 interaction partner, could act as a Raf-RBD/Gal1-interface inhibitor. Its residues 22–45 were previously ... || page 9: Question 3-2. The authors measure the affinity of L5UR to BRAF GST-RBD using fluorescence polarization. The affinity is an increase is 40-fold over the affinity of this peptide to Gal1 – this is a significant enhancement, do the authors have an explanation for this? […] In the pull-downs containing both Gal1 and GST-RBD both proteins are pulled down to equal levels, again this is surprising as one would exp ...

[5] = test system: H-RasG12V nanoclustering; assay: FLIM-FRET H-RasG12V nanoclustering in HEK cells; assay type: cell-based, HEK cells; rat Gal1; conditions: donor:acceptor 1:3, expression (24 h), n = 3
[6] = test system: H-RasG12V nanoclustering; assay: Electron microscopy-based analysis of H-RasG12V nanoclustering in BHK cells; assay type: cell-based, baby hamster kidney (BHK) cells; conditions: membrane sheets of Gal1-expressing BHK cells; n = 15
Excerpt: To quantify the nanoclustering of a component integral to the plasma membrane (PM), the apical PM sheets of baby hamster kidney (BHK) cells expressing a GFP-tagged H-Ras construct were fixed with 4% (w/v) PFA and 0.1% (w/v) glutaraldehyde. GFP anchored to the PM sheets was probed with 4.5 nm gold particles pre-coupled to anti-GFP antibody. Following embedment with methyl cellulose, the PM sheets were imaged using transmission electron microscopy (JEOL JEM-1400). Using the coordinates of every gold particle, Ripley’s K-function calculated the extent of nanoclustering of gold particles within a selected 1 μm^2 PM area: K(r)=An^−2∑i≠jwij1(∥xi−xj∥≤r) Lr−r=Kr/π−r where n gold particles populate in an intact area of A; r is the length between 1 and 240 nm; || ^. || indicates Euclidean distance where 1(^.) = 1 if ||xi − xj|| ≤ r and 1(^.) = 0 if ||xi − xj|| > r; K(r) specifies the univariate K-function. wij^−1 is a parameter used for an unbiased edge correction and characterizes the proportion of the circumference of a circle that has the center at xi and radius ||xi-xj||. Monte Carlo simulations estimate the 99% confidence interval (99% C.I.), which is then used to linearly transform K(r) into L(r) − r. On a nanoclustering curve of L(r) − r vs. r, the peak L(r) − r value is used as summary statistics for nanoclustering and is termed as Lmax. […]

[7] = test system: His-tagged Gal1; assay: Competitive fluorescence polarization, displacement of F-L5UR from His-tagged Gal1; assay type: binding; conditions: F-L5UR (5 nM), Gal1 (5 µM); n = 2
[8] = test system: GST; assay: Direct fluorescence polarization binding of F-L5UR to GST (control); conditions: 10 nM F-L5UR, n = 3
Method: For the direct binding assay, the GST-B-RBD, or GST, was 2-fold diluted in an assay buffer composed of 50 mM Tris HCl pH 7.4, 50 mM NaCl, 5 mM DTT, and 0.005% (v/v) Tween 20 in a black low volume, round bottom 384-well plate (Corning, #4514). Then 10 nM F-L5UR peptide was added to each well and incubated for 20 min at ~22 °C on a horizontal shaker. The fluorescence polarization measurement was performed on the Clariostar (BMG Labtech) plate reader, using a fluorescence polarization module (λexcitation 482 ± 8 nm and λemission 530 ± 20 nm). The milli fluorescence polarization, mP, was determined from the measured fluorescence intensities, calculated according to, mP=1000×Ih−Iv/Ih+Iv where Iv and Ih are the fluorescence emission intensities detected with vertical and horizontal polarization, respectively. The mP was plotted against the concentration of the GST-RBD and the KD value of the F-L5UR was calculated using a quadratic equation, y=Af+Ab−Af*Lt+KD+x−(Lt+KD+x)^2−4*Lt*x/2Lt

[9] = test system: MIA PaCa-2 cells (pERK, pAkt); assay: Immunoblot of EGF-induced pERK and pAkt in MIA PaCa-2; assay type: cell-based, human; conditions: intermediate concentrations, 2 h
[10] = test system: Hs 578 T cells (pERK, pAkt); assay: Immunoblot of EGF-induced pERK and pAkt in Hs 578 T; assay type: cell-based, human; conditions: intermediate concentrations, 2 h
[11] = biological target: Gal1/B-RBD (Homo sapiens, UniProt P15056); assay: Gal1/B-RBD BRET in HEK cells; assay type: cell-based; conditions: peptide added to HEK cells, 0.1 µM to 100 µM, 2 h incubation; donor:acceptor 1:10; n ≥ 2
[12] = biological target: Gal1 (Homo sapiens) (UniProt P09382); conditions: cited from earlier work
[13] = biological target: Gal1 (Homo sapiens) (UniProt P09382); conditions: cited from earlier work; remark: listed apart in the source
Target sequence in this assay (P09382 2-135): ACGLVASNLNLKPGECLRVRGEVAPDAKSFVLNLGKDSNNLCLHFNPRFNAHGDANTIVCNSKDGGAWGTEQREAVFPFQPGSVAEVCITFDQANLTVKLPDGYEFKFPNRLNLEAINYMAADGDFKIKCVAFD

[14] = test system: Gal1; assay: Pull-down with biotinylated L5UR, Gal1; assay type: binding; conditions: biotinylated L5UR 4 µM, proteins 2 µM; n = 3
Method: (§1) Biotinylated L5UR (bio-L5UR) peptide was synthesized as described above with a PEG5-linker to link the biotin to the L5UR peptide. GST, GST-B-Raf-RBD (155–227), and His-Gal1 were prepared as described above. Each protein in the assay was used at 2 µM concentration, and the peptide was at 4 µM in a reaction of 150 µL. First, peptide and Gal1 were pre-incubated for 30 min at 37 °C, then GST-B-RBD or GST alone was added, and the reaction continued for another hour. Control reaction mixes contained DMSO-vehicle instead of the peptide. At the end of the reaction time, 10 µL of each sample was withdrawn for SDS-PAGE analysis as inputs. For pull-downs, 5 µL of the beads were taken per sample. To prepare the beads, an appropriate volume of the slurry was pipetted into 15 mL falcon tubes and centrifuged at 830×g for 1 min to remove the ethanol-containing supernatant. The falcon tube was topped up to 15 mL with distilled water and centrifuged for 1 min to remove water. This washing step was repeated three times. Finally, the beads were resuspended in distilled water so that the final bead volume was 4× diluted i.e., 20 µL were pipetted to each tube. […] The analysis was done by resolving the samples (8 µL of the input samples and 10 µL of the eluted material) on 4–20% gradient SDS-PAGE gels and analyzed by Western blotting. […]

[15] = biological target: GST-B-RBD (Homo sapiens, UniProt P15056); assay: Pull-down with biotinylated L5UR, GST-B-RBD; assay type: binding; conditions: biotinylated L5UR 4 µM, proteins 2 µM; n = 3
Method: as §1

[16] = biological target: T1, C-Raf-RBD (50-134), purified (human, UniProt P04049 50-134); assay: fluorescence polarisation; competitive: non-labeled peptides 3-fold diluted, added to a complex of F-L5UR and RBD (methods: 5 nM and 200 nM; legend of Fig. 2e: 10 nM and 15 µM GST-B-RBD); 30 min at ~22 °C; four-parameter fit; conditions: both partners purified
T1 construct: also called C-RBD; source: E. coli, purified (glutathione agarose)

[17] = biological target: T2, GST-tagged B-Raf-RBD (155-227) (human, UniProt P15056 155-227); conditions: both partners purified
T2 construct: also called GST-B-RBD; GST-B-Raf-RBD; source: E. coli, purified (glutathione agarose)

[18] = biological target: B-Raf-derived RBD (BRET construct) (UniProt P15056)
[19] = biological target: T2, GST-tagged B-Raf-RBD (155-227); assay: fluorescence polarisation; competitive: non-labeled peptides 3-fold diluted, added to a complex of F-L5UR and RBD (methods: 5 nM and 200 nM; legend of Fig. 2e: 10 nM and 15 µM GST-B-RBD); 30 min at ~22 °C; four-parameter fit; conditions: both partners purified
[20] = biological target: T1, C-Raf-RBD (50-134), purified; assay: as above; conditions: both partners purified; remark: listed apart in the source

T2 sequence (P15056 155-227): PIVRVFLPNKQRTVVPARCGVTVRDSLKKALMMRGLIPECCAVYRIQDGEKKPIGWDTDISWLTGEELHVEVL
Chain of GST-B-RBD (P15056 155-227): as above
Chain of Gal1/B-RBD (P15056 155-227): as above
Chain of B-Raf-derived RBD (BRET construct) (P15056 155-227): as above

## CN(C)CCNC(=O)COc1c2cccc1Cc1cccc(c1OCC(=O)NCCN(C)C)Cc1cccc(c1OCC(=O)NCCN(C)C)Cc1cccc(c1OCC(=O)NCCN(C)C)C2 [OTX-008]
[1]
  effect on Gal1/C-RBD FRET: neither Anginex nor OTX-008 disrupted the Gal1/C-RBD interaction

## CC(=O)Nc1cccc(-n2c(=O)n(C3CC3)c(=O)c3c(Nc4ccc(I)cc4F)n(C)c(=O)c(C)c32)c1 [trametinib, reference compound]
[2]
  pAkt levels, HEK: also upregulated by trametinib

## Ac-LLRPTAASQSRALGPGAPGGSSRSSLRSRWGRFLLQRGSWTGPRCWPRGFQS-NH2 (N-terminus and C-terminus assumed) [L5UR]
[3]; expression (48 h), HEK cells comparatively devoid of Gal1, donor:acceptor 1:5
  effect of construct expression on H-RasG12V nanoclustering-BRET without co-expression of Gal1: very similar effects even without co-expression of Gal1
[3]; expression (48 h), co-transfection of 200 ng Gal1 plasmid, donor:acceptor 1:5, Fig. 3c
  reduction of H-RasG12V nanoclustering-BRET: ~ 33%
[4]
  Kd: 310 µM
[5]; Gal1-augmented
  effect on H-RasG12V nanoclustering-FRET: decreased the Gal1-augmented H-RasG12V nanoclustering-FRET
[5]; dimerization-deficient N-Gal1
  effect on H-RasG12V nanoclustering-FRET, N-Gal1: had no additional effect
[1]
  effect on Gal1/C-RBD FRET: decreased the FRET between mGFP-Gal1 and mRFP-C-RBD
[6]
  disruption of H-RasG12V nanoclustering (Lmax): disruption of H-RasG12V nanoclustering by L5UR- and L5UR-SNAP construct expression

## Anginex
[7]
  displacement of F-L5UR from Gal1: it can be displaced from purified His-tagged Gal1
[1]
  effect on Gal1/C-RBD FRET: neither Anginex nor OTX-008 disrupted the Gal1/C-RBD interaction

## F-L5UR: fluorescein attached to N-terminus amino group of L5UR via aminohexanoic acid linker ({fluorescein-Ahx}-LLRPTAASQSRALGPGAPGGSSRSSLRSRWGRFLLQRGSWTGPRCWPRGFQS)
[8]
  binding to GST alone: no binding to GST alone; also recorded: negligible binding

## GRKKRRQRRRPQ [TAT, 12-residue cell penetrating peptide derived from an HIV-protein, reference compound]
[9]
  pERK- and/or pAkt-levels, MIA PaCa-2: apparently non-specific increase in pERK- and/or pAkt-levels
[3]; peptide added to HEK cells, 0.1 µM to 100 µM, 2 h incubation, donor:acceptor 1:5, 200 ng Gal1 plasmid
  effect of peptide on H-RasG12V nanoclustering BRET: Neither the TAT-peptide alone, nor the mutant TAT-mutL5URcore, or the non-TAT peptides L5URcore and mutL5URcore decreased the BRET-signal in either assay
[10]
  pERK- and/or pAkt-levels, Hs 578 T: apparently non-specific increase in pERK- and/or pAkt-levels
[11]
  effect of peptide on Gal1/B-RBD BRET: Neither the TAT-peptide alone, nor the mutant TAT-mutL5URcore, or the non-TAT peptides L5URcore and mutL5URcore decreased the BRET-signal in either assay

## Gal1 (from UniProt P09382)
[12]
  Kd: 7 µM

## L5UR peptide 22-45 (from UniProt P15814)
[13]
  Kd: 310 µM

## bio-L5UR: Biotinylated L5UR with a PEG5-linker linking biotin to the L5UR peptide ({Biotin-PEG5′}-LLRPTAASQSRALGPGAPGGSSRSSLRSRWGRFLLQRGSWTGPRCWPRGFQS-NH2)
[14]
  pull-down of Gal1: pulled down Gal1 and the GST-B-RBD independently from each other
[15]
  pull-down of GST-B-RBD: pulled down Gal1 and the GST-B-RBD independently from each other

B1: FITC-tagged full-length L5UR (peptide, UniProt P15814 38-89, looked up)
peptide: {FITC-Ahx}-LLRPTAASQSRALGPGAPGGSSRSSLRSRWGRFLLQRGSWTGPRCWPRGFQS
notes: 52-mer L5UR: residues 38-89 of the unique region of the λ5-chain (λ5-UR) of the pre-B-cell receptor; also called F-L5UR; source: synthetic peptide; bought: Pepmic Co., China
[16]
  binding result: binds
[17]
  Kd: 7.3 ± 0.7 µM

B2: L5UR peptide, untagged, expressed in cells (peptide)
chain: LLRPTAASQSRALGPGAPGGSSRSSLRSRWGRFLLQRGSWTGPRCWPRGFQS
[18]
  reduction of Gal1-enhanced H-RasG12V nanoclustering-BRET in HEK cells on expression of the construct (it blocks Gal1/B-RBD): 33%

B3: L5UR peptide, non-labeled (peptide, UniProt P15814 38-89, looked up)
peptide: B2 chain
notes: 52-mer L5UR: residues 38-89 of the unique region of the λ5-chain (λ5-UR) of the pre-B-cell receptor; also called full-length peptide of L5UR; source: synthetic peptide; bought: Pepmic Co., China
[19]
  IC50: 2 ± 1 µM
[20]
  IC50: 4 ± 1 µM
